Results as given in patent publication US12410166B2, “Sulfonylamidine substituted compounds and their use as beta-lactamase inhibitors” (NINGXIA ACADEMY OF AGRICULTURE AND FORESTRY SCIENCES, priority 2021, dated 2025).
Where a name gives a salt, the structure may show the parent alone.

Key:
Assay in all cases: MIC by broth microdilution (antibacterial and synergistic activity)
Format in all cases: cell-based
[1] = tested on: A. baumannii clinical isolate (strain 7, OXA-23, OXA-40); details: Acinetobacter baumannii; strain 7 (OXA-23/40); compound alone, no antibiotic; read-out: Antibacterial activity, MIC, inhibitor Alone
Description: (§1) Compounds of the present invention alone, avibactam (AVI) alone, relebactam (REL) alone, meropenem (MER) alone, imipenem (IMI) alone, and as a combination of compounds of the present invention, or avibactam or relebactam with test antibiotic (meropenem or imipenem) was tested for antimicrobial activity by determining minimum inhibitory concentration (MIC, mg/L) using the broth microdilution method according to the guidelines of the Clinical Laboratories and Standards Institute (“Methods for Dilution Antimicrobial Susceptibility Tests for Bacterial that Grow Aerobically”, Approved standard, 7th ed., Clinical and Laboratories Standards Institute (CLSI) Document M7-A8, Wayne, Pa., USA, 2009). Meropenem or imipenem as a test antibiotic compound was dissolved in DMSO, and then diluted in microbial growth medium (Mueller-Hinton Broth II, cation adjusted) resulting in a final concentration range of 0.031-64 mg/L in serial two-fold dilution. In all cases the final DMSO concentration was less than 0.5%. Bacteria were added to 96-well microtitre plates containing the serial two-fold dilutions of the compounds; the final cell density was approximately 5×10^5 colony forming units/mL (CFU/mL). Plates were incubated at 37° C. for 18-24 hours and read visually. The MIC, i.e. the lowest concentration of the test compound that inhibited visible growth of the bacteria, was recorded. The same assay conditions were used when the compounds of present invention alone, avibactam or relebactam alone (as a control), and as a combination of the present invention each compound, or avibactam or relebactam with test meropenem or imipenem antibiotic compound was tested for minimum inhibitory concentration (MIC, mg/L). While test meropenem or imipenem was serially diluted as described above, a constant concentration of avibactam, or relebactam or the present invention each compound of 4 mg/L was used.
(§2) Bacterial strains that were used to evaluate the antimicrobial activity using the MIC determination included but were not limited to E. coli clinical isolate (strain 1, TEM-1), E. coli 8739 (strain 2, CTX-M15), K. pneumoniae clinical isolate (strain 3, SHV-1), K. pneumoniae 700603 (strain 4, KPC-3, TEM-1), E. cloacae clinical isolate (strain 5, P99), E. cloacae 700323 (strain 6, AmpC), A. baumannii clinical isolate (strain 7, OXA-23, OXA-40), A. baumannii 19606 (strain 8, OXA-24), P. aeruginosa clinical isolate (strain 9, KPC-2), P. aeruginosa 9027 (strain 10, AmpC).

[2] = tested on: K. pneumoniae 700603 (strain 4, KPC-3, TEM-1); details: Klebsiella pneumoniae; strain 4 (KPC-3, TEM-1); compound alone, no antibiotic; read-out: Antibacterial activity, MIC, inhibitor Alone
Description: as §1, §2

[3] = tested on: E. cloacae 700323 (strain 6, AmpC); details: Enterobacter cloacae; strain 6 (AmpC); compound alone, no antibiotic; read-out: Antibacterial activity, MIC, inhibitor Alone
Description: as §1, §2

[4] = tested on: E. coli clinical isolate (strain 1, TEM-1); details: Escherichia coli; strain 1 (TEM-1); compound alone, no antibiotic; read-out: Antibacterial activity, MIC, inhibitor Alone
Description: as §1, §2

[5] = tested on: E. coli 8739 (strain 2, CTX-M15); details: Escherichia coli, read-out: Antibacterial activity, MIC, inhibitor Alone
Description: as §1, §2

[6] = tested on: P. aeruginosa clinical isolate (strain 9, KPC-2); details: Pseudomonas aeruginosa; strain 9 (KPC-2); compound alone, no antibiotic; read-out: Antibacterial activity, MIC, inhibitor Alone
Description: as §1, §2

[7] = tested on: P. aeruginosa 9027 (strain 10, AmpC); details: Pseudomonas aeruginosa; strain 10 (AmpC); compound alone, no antibiotic; read-out: Antibacterial activity, MIC, inhibitor Alone
Description: as §1, §2

[8] = tested on: K. pneumoniae clinical isolate (strain 3, SHV-1); details: Klebsiella pneumoniae; strain 3 (SHV-1); compound alone, no antibiotic; read-out: Antibacterial activity, MIC, inhibitor Alone
Description: as §1, §2

[9] = tested on: E. cloacae clinical isolate (strain 5, P99); details: Enterobacter cloacae; strain 5 (P99); compound alone, no antibiotic; read-out: Antibacterial activity, MIC, inhibitor Alone
Description: as §1, §2

[10] = tested on: A. baumannii 19606 (strain 8, OXA-24); details: Acinetobacter baumannii, read-out: Antibacterial activity, MIC, inhibitor Alone
Description: as §1, §2

Measured: MIC

NC(=O)[C@@H]1CC[C@@H]2CN1C(=O)N2OS(=O)(=O)O [AVI, avibactam, reference compound]
> 64 µg/mL: all assays above

N=C(NS(=O)(=O)c1ccc(C(F)(F)F)cn1)[C@@H]1CC[C@@H]2CN1C(=O)N2OS(=O)(=O)O [Ex. 20, (2S,5R)-7-oxo-2-(N-((5-(trifluoromethyl)pyridin-2-yl)sulfonyl)carbamimidoyl)-1,6-diazabicyclo[3.2.1]octan-6-yl hydrogen sulfate]
> 64 µg/mL: all assays above

N=C(NS(=O)(=O)c1cnccn1)[C@@H]1CC[C@@H]2CN1C(=O)N2OS(=O)(=O)O [Ex. 24, (2S,5R)-7-oxo-2-(N-(pyrazin-2-ylsulfonyl)carbamimidoyl)-1,6-diazabicyclo[3.2.1]octan-6-yl hydrogen sulfate]
> 64 µg/mL: all assays above

COc1ccc(S(=O)(=O)NC(=N)[C@@H]2CC[C@@H]3CN2C(=O)N3OS(=O)(=O)O)nc1 [Ex. 22, (2S,5R)-2-(N-((5-methoxypyridin-2-yl)sulfonyl)carbamimidoyl)-7-oxo-1,6-diazabicyclo[3.2.1]octan-6-yl hydrogen sulfate]
> 64 µg/mL: all assays above

N=C(NS(=O)(=O)c1ccccn1)[C@@H]1CC[C@@H]2CN1C(=O)N2OS(=O)(=O)O [Ex. 12, (2S,5R)-7-Oxo-2-(N-(pyridin-2-ylsulfonyl)carbamimidoyl)-1,6-diazabicyclo[3.2.1]octan-6-yl hydrogen sulfate]
> 64 µg/mL: all assays above

Cn1ccnc1S(=O)(=O)NC(=N)[C@@H]1CC[C@@H]2CN1C(=O)N2OS(=O)(=O)O [Ex. 19, (2S,5R)-2-(N-((1-methyl-1H-imidazol-2-yl)sulfonyl)carbamimidoyl)-7-oxo-1,6-diazabicyclo[3.2.1]octan-6-yl hydrogen sulfate]
> 64 µg/mL: all assays above

COCCS(=O)(=O)NC(=N)[C@@H]1CC[C@@H]2CN1C(=O)N2OS(=O)(=O)[O-].[Na+] [Ex. 3, Sodium (2S,5R)-2-(N-((2-methoxyethyl)sulfonyl)carbamimidoyl)-7-oxo-1,6-diazabicyclo[3.2.1]octan-6-yl sulfate]
> 64 µg/mL: all assays above
